Reference: patent US9120805B2, “Substituted pyrrolo[1,2-A]pyrazin-1-ones and pyrazolo[1,5-A]pyrazin-4-ones as inhibitors of tankyrase and poly(ADP-ribose)polymerase activity” (Merck Patent GmbH, priority 2012, dated 2015)
Where a name gives a salt, the structure may show the parent alone.

Assays:
[1] = target: T1, GST-tagged Tankyrase-1 (1023-1327 aa) (Homo sapiens, UniProt O95271); test: Tankyrase 1 autoparsylation assay (HTRF enzyme assay); assay type: biochemical
T1 construct: GST-tagged Tankyrase-1 (1023-1327 aa)
Method: (§1) Biochemical Activity Testing of Tankyrase 1 and 2: Autoparsylation Assay
(§2) The autoparsylation assay is run in two steps: the enzymatic reaction in which GST-tagged Tankyrase-1, resp Tankyrase-2 transferred biotinylated ADP-ribose to itself from biotinylated NAD as co-substrate and the detection reaction where a time resolved FRET between cryptate labelled anti-GST bound to the GST tag of the enzyme and Xlent® labelled-streptavidin bound the biotin-parsylation residue is analysed. The autoparsylation activity was detectable directly via the increase in HTRF signal.
(§3) The autoparsylation assay is performed as 384-well HTRF® (Cisbio, Codolet, France) assay format in Greiner low volume nb 384-well microtiter plates and is used for high throughput screen. 250 nM GST-tagged Tankyrase-1 (1023-1327 aa), respectively about 250 nM GST-tagged Tankyrase-2 (873-1166 aa) and 5 μM bio-NAD (Biolog, Life science Inst., Bremen, Germany) as co-substrate are incubated in a total volume of 5 μl (50 mM HEPES, 4 mM Mg-chloride, 0.05% Pluronic F-68, 1.4 mM DTT, 0.5% DMSO, pH 7.7) in the absence or presence of the test compound (10 dilution concentrations) for 90 min at 30° C. The reaction is stopped by the addition of 1 μl 50 mM EDTA solution. 2 μl of the detection solution (1.6 μM SA-Xlent® (Cisbio, Codolet, France), 7.4 nM Anti-GST-K® (Eu-labelled anti-GST, Cisbio, Codolet, France) in 50 mM HEPES, 800 mM KF, 0.1% BSA, 20 mM EDTA, 0.1% CHAPS, pH 7.0) are added. After 1 h incubation at room temperature the HTRF is measured with an Envision multimode reader (Perkin Elmer LAS Germany GmbH) at excitation wavelength 340 nm (laser mode) and emission wavelengths 615 nm and 665 nm. The ratio of the emission signals is determined. The full value used is the inhibitor-free reaction. The pharmacological zero value used is XAV-939 (Tocris) in a final concentration of 5 μM. The inhibitory values (IC50) are determined using either the program Symyx Assay Explorer® or Condosseo® from GeneData.

[2] = target: T2, GST-tagged Tankyrase-2 (873-1166 aa) (Homo sapiens, UniProt Q9H2K2); test: Tankyrase 2 autoparsylation assay (HTRF enzyme assay); assay type: biochemical
T2 construct: GST-tagged Tankyrase-2 (873-1166 aa)
Method: as §1, §2, §3

[3] = system: tankyrase 1/2; test: Cellular inhibition of Tankyrase: increase of Axin2 level in DLD1 cells (Luminex); assay type: cell-based; conditions: 24 hours, read-out: EC50 tankyrase 1/2 (cell assay)
Method: Measurement of Cellular Inhibition of Tankyrase
Since Tankyrases have been described to modulate cellular level of Axin2 (Huang et al., 2009; Nature) the increase of Axin2 level is used as read-out for determination of cellular inhibition of Tankyrases in a Luminex based assay.
Cells of the colon carcinoma cell line DLD1 are plated in 96 well plates with 1.5×10^4 cells per well. Next day, cells are treated with a serial dilution of test compound in seven steps as triplicates with a final DMSO concentration of 0.3%. After 24 hours, cells are lysed in lysis buffer (20 mM Tris/HCl pH 8.0, 150 mM NaCl, 1% NP40, 10% Glycerol) and lysates are cleared by centrifugation through a 96 well filter plate (0.65 μm). Axin2 protein is isolated from cell lysates by incubation with a monoclonal anti-Axin2 antibody (R&D Systems #MAB6078) that is bound to fluorescent carboxybeads. Then, bound Axin2 is specifically detected with a polyclonal anti-Axin2 antibody (Cell Signaling #2151) and an appropriate PE-fluorescent secondary antibody. The amount of isolated Axin2 protein is determined in a Luminex^200 machine (Luminex Corporation) according to the manufacturer's instruction by counting 100 events per well. Inhibition of Tankyrase by test compounds results in higher levels of Axin2 which directly correlates with an increase of detectable fluorescence. As controls cells are treated with solvent alone (neutral control) and with a Tankyrase reference inhibitor IWR-2 (3E-06 M) which refers as control for maximum increase of Axin2. For analysis, the obtained data are normalized against the untreated solvent control and fitted for determination of the EC50 values using the Assay Explorer software (Accelrys).

T2 sequence (Q9H2K2 873-1166): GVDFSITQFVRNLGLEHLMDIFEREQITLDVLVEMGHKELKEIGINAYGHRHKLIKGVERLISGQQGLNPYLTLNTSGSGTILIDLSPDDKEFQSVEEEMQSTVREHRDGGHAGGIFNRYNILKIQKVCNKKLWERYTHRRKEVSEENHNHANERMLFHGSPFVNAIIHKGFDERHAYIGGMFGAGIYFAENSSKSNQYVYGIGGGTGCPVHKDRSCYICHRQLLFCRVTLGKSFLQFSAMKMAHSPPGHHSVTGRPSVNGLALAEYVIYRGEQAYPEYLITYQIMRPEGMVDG
T1 sequence (O95271 1023-1327): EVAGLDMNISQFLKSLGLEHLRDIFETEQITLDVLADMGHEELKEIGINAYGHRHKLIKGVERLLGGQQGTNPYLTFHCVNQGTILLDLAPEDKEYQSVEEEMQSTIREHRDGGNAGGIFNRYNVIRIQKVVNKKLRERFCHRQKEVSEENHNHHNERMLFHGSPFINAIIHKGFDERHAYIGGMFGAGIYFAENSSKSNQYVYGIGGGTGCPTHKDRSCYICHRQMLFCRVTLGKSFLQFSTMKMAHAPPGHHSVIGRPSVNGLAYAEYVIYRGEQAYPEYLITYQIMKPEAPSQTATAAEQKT

Compound	IC50 [1] [nM]	IC50 [2] [nM]	EC50 [3] [nM]
O=c1[nH]c(-c2ccc(Br)cc2)cn2cccc12 [Compound A24, 3-(4-bromo-phenyl)-2H-pyrrolo[1,2-a]pyrazin-1-one]	< 300	< 300	
O=c1[nH]c(-c2ccc(C3(O)CNC3)cc2)cn2cccc12 [Compound A86, 3-[4-(3-hydroxy-azetidin-3-yl)-phenyl]-2H-pyrrolo[1,2-a]pyrazin-1-one hydrochloride]	300 to 3000	300 to 3000	3000 to 50000
O=c1[nH]c(-c2ccc(OC(F)(F)F)cc2)cn2nc(CCl)cc12 [Compound A33, 2-chloromethyl-6-(4-trifluoromethoxy-phenyl)-5H-pyrazolo[1,5-a]pyrazin-4-one]	300 to 3000		
O=c1[nH]c(-c2ccc(Br)cc2)cn2cc(F)cc12 [Compound A58, 3-(4-bromo-phenyl)-7-fluoro-2H-pyrrolo[1,2-a]pyrazin-1-one]	< 300	< 300	
CC1(C)CCC(C)(C)c2cc(-c3cn4cccc4c(=O)[nH]3)ccc21 [Compound A5, 3-(5,5,8,8-tetramethyl-5,6,7,8-tetrahydro-naphthalen-2-yl)-2H-pyrrolo[1,2-a]pyrazin-1-one]	3000 to 50000		
O=c1[nH]c(-c2ccc(C3(O)CCNCC3)cc2)cn2cccc12 [Compound A99]	300 to 3000	300 to 3000	3000 to 50000
Cn1cc(-c2ccc(-c3cn4cc(F)cc4c(=O)[nH]3)cc2)cn1 [Compound A90]	< 300	300 to 3000	300 to 3000
O=c1[nH]c(-c2ccc(N3CCCC3)cc2)cn2nc(CO)cc12 [Compound A19, 2-hydroxymethyl-6-(4-pyrrolidin-1-yl-phenyl)-5H-pyrazolo[1,5-a]pyrazin-4-one]	< 300	300 to 3000	300 to 3000
CC(C)n1cc(-c2cn3nc(CO)cc3c(=O)[nH]2)cn1 [Compound A22, 2-hydroxymethyl-6-(1-isopropyl-1H-pyrazol-4-yl)-5H-pyrazolo[1,5-a]pyrazin-4-one]	3000 to 50000		
Cc1ccc2c(=O)[nH]c(-c3ccc(Br)cc3)cn12 [Compound A94]	< 300	300 to 3000	300 to 3000
CC(C)Oc1ccc(-c2cn3nc(CO)cc3c(=O)[nH]2)cc1 [Compound A20, 2-hydroxymethyl-6-(4-isopropoxy-phenyl)-5H-pyrazolo[1,5-a]pyrazin-4-one]	300 to 3000	3000 to 50000	
Cc1cc2c(=O)[nH]c(-c3ccc(OC(F)(F)F)cc3)cn2n1 [Compound A34, 2-methyl-6-(4-trifluoromethoxy-phenyl)-5H-pyrazolo[1,5-a]pyrazin-4-one]	< 300	300 to 3000	300 to 3000
Cn1cc(-c2cn3cccc3c(=O)[nH]2)cn1 [Compound A14, 3-(1-methyl-1H-pyrazol-4-yl)-2H-pyrrolo[1,2-a]pyrazin-1-one]	300 to 3000	300 to 3000	
CN1CCC(c2ccc(-c3cn4cc(Cl)cc4c(=O)[nH]3)cc2)CC1 [Compound A82, 7-chloro-3-[4-(1-methyl-piperidin-4-yl)-phenyl]-2H-pyrrolo[1,2-a]pyrazin-1-one]	< 300	300 to 3000	300 to 3000
O=c1[nH]c(-c2ccc(C3CCNCC3)cc2)cn2cc(F)cc12 [Compound A77, 7-fluoro-3-(4-piperidin-4-yl-phenyl)-2H-pyrrolo[1,2-a]pyrazin-1-one]	< 300	300 to 3000	300 to 3000
C=C(CCCO)c1ccc(-c2cn3cc(F)cc3c(=O)[nH]2)cc1 (single isomer, unassigned) [Compound A74, 7-fluoro-3-[4-(4-hydroxy-1-methylene-butyl)-phenyl]-2H-pyrrolo[1,2-a]pyrazin-1-one]	< 300	300 to 3000	300 to 3000
CC(C)(O)c1ccc(-c2cn3nc(C(F)(F)F)cc3c(=O)[nH]2)cc1 [Compound A69, 6-[4-(1-hydroxy-1-methyl-ethyl)phenyl]-2-trifluoromethyl-5H-pyrazolo[1,5-a]pyrazin-4-one]	300 to 3000	3000 to 50000	3000 to 50000
O=c1[nH]c(-c2ccccc2)cn2cccc12 [Compound A2, 3-phenyl-2H-pyrrolo[1,2-a]pyrazin-1-one]	300 to 3000	300 to 3000	
COCCn1cc(-c2ccc(-c3cn4cccc4c(=O)[nH]3)cc2)cn1 [Compound A26, 3-{4-[1-(2-methoxy-ethyl)-1H-pyrazol-4-yl]-phenyl}-2H-pyrrolo[1,2-a]pyrazin-1-one]	< 300	< 300	300 to 3000
Cc1nc(-c2ccc(-c3cn4nc(CO)cc4c(=O)[nH]3)cc2)no1 [Compound A21, 2-hydroxymethyl-6-[4-(5-methyl-[1,2,4]oxadiazol-3-yl)-phenyl]-5H-pyrazolo[1,5-a]pyrazin-4-one]	300 to 3000	3000 to 50000	
Cc1cc2c(=O)[nH]c(-c3cnn(C(C)(C)C)c3)cn2n1 [Compound A52, 2-methyl-6-(1-tert-butyl-1H-pyrazol-4-yl)-5H-pyrazolo[1,5-a]pyrazin-4-one]	300 to 3000	3000 to 50000	
O=c1[nH]c(-c2ccc(Br)cc2)cn2nc(CBr)cc12 [Compound A36, 2-bromomethyl-6-(4-bromo-phenyl)-5H-pyrazolo[1,5-a]pyrazin-4-one]	300 to 3000	3000 to 50000	
O=c1[nH]c(-c2ccc(C3CCNCC3)cc2)cn2cc(Cl)cc12 [Compound A78, 7-Chloro-3-(4-piperidin-4-yl-phenyl)-2H-pyrrolo[1,2-a]pyrazin-1-one]			300 to 3000
O=c1[nH]c(-c2ccc(OC(F)(F)F)cc2)cn2nccc12 [Compound A16, 6-(4-trifluoromethoxy-phenyl)-5H-pyrazolo[1,5-a]pyrazin-4-one]	300 to 3000	3000 to 50000	
O=c1[nH]c(-c2ccc(-c3cnn(CCN4CCCC4)c3)cc2)cn2cccc12 [Compound A27, 3-{4-[1-(2-pyrrolidin-1-yl-ethyl)-1H-pyrazol-4-yl]-phenyl}-2H-pyrrolo[1,2-a]pyrazin-1-one]	< 300	< 300	300 to 3000
O=c1[nH]c(-c2ccc(Br)cc2)cn2nc(C(F)(F)F)cc12 [Compound A67, 6-(4-bromo-phenyl)-2-trifluoromethyl-5H-pyrazolo[1,5-a]pyrazin-4-one]	300 to 3000		
Cc1cc2c(=O)[nH]c(-c3ccc(C(C)(C)C)cc3)cn2n1 [Compound A30, 6-(4-tert-butyl-phenyl)-2-methyl-5H-pyrazolo[1,5-a]pyrazin-4-one]	< 300	300 to 3000	< 300
O=c1[nH]c(-c2ccc(-c3cnn(CCOC4CCCCO4)c3)cc2)cn2cccc12 (stereo not drawn) [Compound A31, 3-(4-{1-[2-(tetrahydro-pyran-2-yloxy)-ethyl]-1H-pyrazol-4-yl}-phenyl)-2H-pyrrolo[1,2-a]pyrazin-1-one]	< 300	300 to 3000	
CC(C)(O)c1ccc(-c2cn3cc(C#N)cc3c(=O)[nH]2)cc1 [Compound A62, 3-[4-(1-hydroxy-1-methyl-ethyl)-phenyl]-1-oxo-1,2-dihydro-pyrrolo[1,2-a]pyrazine-7-carbonitrile]			3000 to 50000
CC(C)(C)c1ccc(-c2cn3nc(C(F)(F)F)cc3c(=O)[nH]2)cc1 [Compound A55, 6-(4-tert-butyl-phenyl)-2-trifluoromethyl-5H-pyrazolo[1,5-a]pyrazin-4-one]	< 300		
